Measured values taken from the supplement of paper PMC9663587.

Experiments:
Assay in all cases: GRmax, 72 h; higher = less effect;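 also: breast cell lines in 384-well plates, nine doses across a 10^4 range, Dye Drop imaging of viable cells vs DMSO and time-zero plates, GR 0 means no net growth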
MDAMB330 = system: MDAMB330
MDAMB436 = system: MDAMB436
BT549 = system: BT549
EVSAT = system: EVSAT
HCC1806 = system: HCC1806
SUM159 = system: SUM159
MDAMB175VII = system: MDAMB175VII
PDX1258 = system: PDX1258
ZR751 = system: ZR751
HCC1395 = system: HCC1395
MGH312 = system: MGH312
HCC1419 = system: HCC1419

COc1ccc2c(c1)[C@]1(C[C@H]1c1ccc3c(/C=C/c4ccc(CN5C[C@@H](C)O[C@@H](C)C5)cc4)n[nH]c3c1)C(=O)N2
GRmax, 72 h (MDAMB330): 0.284 GR
GRmax, 72 h (MDAMB436): -0.226 GR
GRmax, 72 h (BT549): 0.0324 GR
GRmax, 72 h (EVSAT): -0.0524 GR
GRmax, 72 h (HCC1806): -0.106 GR
GRmax, 72 h (SUM159): -0.119 GR
GRmax, 72 h (MDAMB175VII): 0.046 GR
GRmax, 72 h (PDX1258): -0.0552 GR
GRmax, 72 h (ZR751): 0.166 GR
GRmax, 72 h (HCC1395): -0.178 GR
GRmax, 72 h (MGH312): -0.28 GR
GRmax, 72 h (HCC1419): 0.32 GR

COc1cccc(OCCCN)c1-c1cc(Nc2cnc(C#N)cn2)n[nH]1
GRmax, 72 h (MDAMB330): -0.183 GR
GRmax, 72 h (MDAMB436): 0.0078 GR
GRmax, 72 h (BT549): -0.422 GR
GRmax, 72 h (EVSAT): 0.713 GR
GRmax, 72 h (HCC1806): -0.476 GR
GRmax, 72 h (SUM159): -0.0281 GR
GRmax, 72 h (MDAMB175VII): 0.0945 GR
GRmax, 72 h (PDX1258): -0.457 GR
GRmax, 72 h (ZR751): 0.384 GR
GRmax, 72 h (HCC1395): -0.491 GR
GRmax, 72 h (MGH312): 0.887 GR
GRmax, 72 h (HCC1419): 0.248 GR

CC(=O)Nc1cccc(-n2c(=O)n(C3CC3)c(=O)c3c(Nc4ccc(I)cc4F)n(C)c(=O)c(C)c32)c1 (max 1 µM)
GRmax, 72 h (MDAMB330): 0.251 GR
GRmax, 72 h (MDAMB436): 0.557 GR
GRmax, 72 h (BT549): 0.598 GR
GRmax, 72 h (EVSAT): 0.939 GR
GRmax, 72 h (HCC1806): 0.704 GR
GRmax, 72 h (SUM159): 0.404 GR
GRmax, 72 h (MDAMB175VII): -0.698 GR
GRmax, 72 h (PDX1258): 0.85 GR
GRmax, 72 h (ZR751): 0.266 GR
GRmax, 72 h (HCC1395): 0.45 GR
GRmax, 72 h (MGH312): 1.12 GR
GRmax, 72 h (HCC1419): 0.426 GR

CCc1cnn2c(NCc3ccc[n+]([O-])c3)cc(N3CCCC[C@H]3CCO)nc12 (max 1 µM)
GRmax, 72 h (MDAMB330): -0.504 GR
GRmax, 72 h (MDAMB436): -0.144 GR
GRmax, 72 h (BT549): -0.292 GR
GRmax, 72 h (EVSAT): 0.0834 GR
GRmax, 72 h (HCC1806): -0.459 GR
GRmax, 72 h (SUM159): -0.122 GR
GRmax, 72 h (MDAMB175VII): -0.493 GR
GRmax, 72 h (PDX1258): -0.617 GR
GRmax, 72 h (ZR751): -0.406 GR
GRmax, 72 h (HCC1395): -0.497 GR
GRmax, 72 h (MGH312): -0.951 GR
GRmax, 72 h (HCC1419): -0.476 GR

CC(=O)c1c(C)c2cnc(Nc3ccc(N4CCNCC4)cn3)nc2n(C2CCCC2)c1=O (max 3.162 µM)
GRmax, 72 h (MDAMB330): 0.207 GR
GRmax, 72 h (MDAMB436): 1.06 GR
GRmax, 72 h (BT549): 1.08 GR
GRmax, 72 h (EVSAT): 0.646 GR
GRmax, 72 h (HCC1806): 0.692 GR
GRmax, 72 h (SUM159): 0.45 GR
GRmax, 72 h (MDAMB175VII): -0.0887 GR
GRmax, 72 h (PDX1258): 1.02 GR
GRmax, 72 h (ZR751): 0.482 GR
GRmax, 72 h (HCC1395): 0.348 GR
GRmax, 72 h (MGH312): 1.03 GR
GRmax, 72 h (HCC1419): 0.441 GR

CCc1cncnc1N1CCN(Cc2nc3ccc(C(F)(F)F)cc3[nH]2)CC1 (max 10 µM)
GRmax, 72 h (MDAMB330): 0.621 GR
GRmax, 72 h (MDAMB436): 0.194 GR
GRmax, 72 h (BT549): 0.744 GR
GRmax, 72 h (EVSAT): 0.711 GR
GRmax, 72 h (HCC1806): 1.15 GR
GRmax, 72 h (SUM159): 0.846 GR
GRmax, 72 h (MDAMB175VII): -0.426 GR
GRmax, 72 h (PDX1258): 0.775 GR
GRmax, 72 h (ZR751): 0.867 GR
GRmax, 72 h (HCC1395): 0.659 GR
GRmax, 72 h (MGH312): 0.311 GR
GRmax, 72 h (HCC1419): 0.349 GR

CCCCOc1c(C(=O)c2c(F)cc(C)cc2F)c[nH]c2nncc1-2 (max 10 µM)
GRmax, 72 h (MDAMB330): 0.129 GR
GRmax, 72 h (MDAMB436): 0.264 GR
GRmax, 72 h (BT549): -0.149 GR
GRmax, 72 h (EVSAT): 0.279 GR
GRmax, 72 h (HCC1806): 0.0151 GR
GRmax, 72 h (SUM159): 0.26 GR
GRmax, 72 h (MDAMB175VII): -0.0619 GR
GRmax, 72 h (PDX1258): -0.232 GR
GRmax, 72 h (ZR751): 0.451 GR
GRmax, 72 h (HCC1395): -0.214 GR
GRmax, 72 h (MGH312): 0.0975 GR
GRmax, 72 h (HCC1419): 0.4 GR

CCN1CCN(Cc2ccc(Nc3ncc(F)c(-c4cc(F)c5nc(C)n(C(C)C)c5c4)n3)nc2)CC1 (max 10 µM)
GRmax, 72 h (MDAMB330): -0.0152 GR
GRmax, 72 h (MDAMB436): -0.333 GR
GRmax, 72 h (BT549): 0.0333 GR
GRmax, 72 h (EVSAT): -0.545 GR
GRmax, 72 h (HCC1806): -0.444 GR
GRmax, 72 h (SUM159): -0.0575 GR
GRmax, 72 h (MDAMB175VII): -0.192 GR
GRmax, 72 h (PDX1258): -0.331 GR
GRmax, 72 h (ZR751): 0.311 GR
GRmax, 72 h (HCC1395): -0.52 GR
GRmax, 72 h (MGH312): -0.461 GR
GRmax, 72 h (HCC1419): 0.228 GR

CNc1nc(-c2ccc3c(N)n[nH]c3c2)cc(N2C[C@@H](C(=O)NC3CCCCC3)CC[C@H]2C)n1 (max 10 µM)
GRmax, 72 h (MDAMB330): -0.738 GR
GRmax, 72 h (MDAMB436): 0.811 GR
GRmax, 72 h (BT549): 0.666 GR
GRmax, 72 h (EVSAT): -0.049 GR
GRmax, 72 h (HCC1806): 0.869 GR
GRmax, 72 h (SUM159): 0.6 GR
GRmax, 72 h (MDAMB175VII): -0.459 GR
GRmax, 72 h (PDX1258): 0.644 GR
GRmax, 72 h (ZR751): 0.425 GR
GRmax, 72 h (HCC1395): 0.518 GR
GRmax, 72 h (MGH312): -0.599 GR
GRmax, 72 h (HCC1419): 0.442 GR

CO[C@@H](C)Cn1c(=O)n(C)c2cnc3ccc(-c4cncc(C(C)(C)O)c4)cc3c21 (max 10 µM)
GRmax, 72 h (MDAMB330): -0.799 GR
GRmax, 72 h (MDAMB436): 0.323 GR
GRmax, 72 h (BT549): -0.0177 GR
GRmax, 72 h (EVSAT): -0.384 GR
GRmax, 72 h (HCC1806): -0.0061 GR
GRmax, 72 h (SUM159): 0.0637 GR
GRmax, 72 h (MDAMB175VII): -0.938 GR
GRmax, 72 h (PDX1258): -0.344 GR
GRmax, 72 h (ZR751): -0.117 GR
GRmax, 72 h (HCC1395): -0.0122 GR
GRmax, 72 h (MGH312): -0.795 GR
GRmax, 72 h (HCC1419): -0.769 GR

Cc1nn(C)c(COc2ccc(N3CCN(S(=O)(=O)N(C)C)CC3)cc2)c1-c1cccc2c(CCCOc3cccc4ccccc34)c(C(=O)O)n(CCN3CCOCC3)c12 (max 10 µM)
GRmax, 72 h (MDAMB330): 0.881 GR
GRmax, 72 h (MDAMB436): 0.873 GR
GRmax, 72 h (BT549): 0.954 GR
GRmax, 72 h (EVSAT): 0.901 GR
GRmax, 72 h (HCC1806): 0.905 GR
GRmax, 72 h (SUM159): 0.83 GR
GRmax, 72 h (MDAMB175VII): 0.705 GR
GRmax, 72 h (PDX1258): 0.919 GR
GRmax, 72 h (ZR751): 1.03 GR
GRmax, 72 h (HCC1395): 0.859 GR
GRmax, 72 h (MGH312): 0.775 GR
GRmax, 72 h (HCC1419): 0.708 GR

CN(C)CC[C@H](CSc1ccccc1)Nc1ccc(S(=O)(=O)NC(=O)c2ccc(N3CCN(Cc4ccccc4-c4ccc(Cl)cc4)CC3)cc2)cc1[N+](=O)[O-] [ABT-737] (max 10 µM)
GRmax, 72 h (MDAMB330): -0.104 GR
GRmax, 72 h (MDAMB436): 0.815 GR
GRmax, 72 h (BT549): 0.936 GR
GRmax, 72 h (EVSAT): 0.697 GR
GRmax, 72 h (HCC1806): 0.729 GR
GRmax, 72 h (SUM159): 0.781 GR
GRmax, 72 h (MDAMB175VII): -0.101 GR
GRmax, 72 h (PDX1258): 0.758 GR
GRmax, 72 h (ZR751): 0.886 GR
GRmax, 72 h (HCC1395): 0.861 GR
GRmax, 72 h (MGH312): 0.0409 GR
GRmax, 72 h (HCC1419): 0.471 GR

C=CCn1c(=O)c2cnc(Nc3ccc(N4CCN(C)CC4)cc3)nc2n1-c1cccc(C(C)(C)O)n1 [AZD1775] (max 10 µM)
GRmax, 72 h (MDAMB330): -0.234 GR
GRmax, 72 h (MDAMB436): -0.26 GR
GRmax, 72 h (BT549): -0.456 GR
GRmax, 72 h (EVSAT): -0.39 GR
GRmax, 72 h (HCC1806): -0.55 GR
GRmax, 72 h (SUM159): -0.152 GR
GRmax, 72 h (MDAMB175VII): -0.203 GR
GRmax, 72 h (PDX1258): -0.46 GR
GRmax, 72 h (ZR751): 0.247 GR
GRmax, 72 h (HCC1395): -0.587 GR
GRmax, 72 h (MGH312): -0.873 GR
GRmax, 72 h (HCC1419): -0.0276 GR

CNC(=O)c1cccc(-c2ccc3c(N4CCOC[C@@H]4C)nc(N4CCOC[C@@H]4C)nc3n2)c1 [AZD2014] (max 10 µM)
GRmax, 72 h (MDAMB330): -0.733 GR
GRmax, 72 h (MDAMB436): 0.519 GR
GRmax, 72 h (BT549): 0.089 GR
GRmax, 72 h (EVSAT): -0.21 GR
GRmax, 72 h (HCC1806): 0.409 GR
GRmax, 72 h (SUM159): 0.113 GR
GRmax, 72 h (MDAMB175VII): -0.756 GR
GRmax, 72 h (PDX1258): -0.118 GR
GRmax, 72 h (ZR751): -0.0477 GR
GRmax, 72 h (HCC1395): 0.274 GR
GRmax, 72 h (MGH312): -0.693 GR
GRmax, 72 h (HCC1419): -0.12 GR

NC1(C(=O)N[C@@H](CCO)c2ccc(Cl)cc2)CCN(c2nc[nH]c3nccc2-3)CC1 [AZD5363] (max 10 µM)
GRmax, 72 h (MDAMB330): -0.643 GR
GRmax, 72 h (MDAMB436): 0.728 GR
GRmax, 72 h (BT549): 0.557 GR
GRmax, 72 h (EVSAT): -0.441 GR
GRmax, 72 h (HCC1806): 0.789 GR
GRmax, 72 h (SUM159): 0.444 GR
GRmax, 72 h (MDAMB175VII): -0.28 GR
GRmax, 72 h (PDX1258): 0.321 GR
GRmax, 72 h (ZR751): 0.686 GR
GRmax, 72 h (HCC1395): 0.0739 GR
GRmax, 72 h (MGH312): -0.905 GR
GRmax, 72 h (HCC1419): 0.536 GR

C[C@@H]1COCCN1c1cc(C2([S@](C)(=N)=O)CC2)nc(-c2cc[nH]c3nccc2-3)n1 [AZD6738] (max 10 µM)
GRmax, 72 h (MDAMB330): 0.12 GR
GRmax, 72 h (MDAMB436): 0.363 GR
GRmax, 72 h (BT549): -0.099 GR
GRmax, 72 h (EVSAT): 0.742 GR
GRmax, 72 h (HCC1806): -0.326 GR
GRmax, 72 h (SUM159): 0.497 GR
GRmax, 72 h (MDAMB175VII): 0.149 GR
GRmax, 72 h (PDX1258): -0.295 GR
GRmax, 72 h (ZR751): 0.598 GR
GRmax, 72 h (HCC1395): -0.284 GR
GRmax, 72 h (MGH312): 0.348 GR
GRmax, 72 h (HCC1419): 0.367 GR
